System: P388 murine leukemia cells
Experiment: Cytotoxicity against P388 murine leukemia cells (MTT assay)
Assay type: cell-based
Settings: Mus musculus, P388, P388 cells 2.5x10³ per well, sample added after 24 hours, cultivated 3 days at 37°C, 5% CO₂, absorption at 540 nm, read-out: IC₅₀
Protocol: P388 murine leukemia cells were spread over a 96-well microplate, 2.5x10³ cells per well. A sample to be tested was added after 24 hours. Cells were cultivated under the conditions of 5% CO₂ at 37°C for 3 days. 3-(4,5-Dimethylthiazol-2-yl)-2,5-diphenyl-2H-tetrazolium bromide (MTT) was added 4 hours after the addition of the sample. Upon the addition of 200 µl/ml of isopropyl alcohol containing 0.04 N HCl the absorption at 540 nm was measured to determine IC₅₀.

SMILES	IC50
CC[C@@]1(O)C(=O)OCc2c1cc1n(c2=O)Cc2c-1nc1ccc(OC)c3c1c2CCC3N.Cl (single isomer, unassigned) [Example 7 (Isomer A)]	0.0114 µg/mL

Same assay, conditions: P388 cells 2.5x10³ per well, sample added after 24 hours, cultivated 3 days at 37°C, 5% CO₂, absorption at 540 nm, hydrochloride

SMILES	IC₅₀
CC[C@@]1(O)C(=O)OCc2c1cc1n(c2=O)Cc2c-1nc1cccc3c1c2C(N)CC3.Cl (single isomer, unassigned) [Example 2 (Isomer B)]	12.40 ng/mL
CC[C@@]1(O)C(=O)OCc2c1cc1n(c2=O)Cc2c-1nc1ccc(OC)c3c1c2C(N)CC3.Cl (single isomer, unassigned) [Example 4 (Isomer A)]	9.21 ng/mL
CC[C@@]1(O)C(=O)OCc2c1cc1n(c2=O)Cc2c-1nc1ccc(OC)c3c1c2CCC3N.Cl (single isomer, unassigned) [Example 7 (Isomer B)]	11.90 ng/mL
CC[C@@]1(O)C(=O)OCc2c1cc1n(c2=O)Cc2c-1nc1ccc(OC)c3c1c2C(N)CC3.Cl (single isomer, unassigned) [Example 4 (Isomer B)]	27.80 ng/mL
CC[C@@]1(O)C(=O)OCc2c1cc1n(c2=O)Cc2c-1nc1cccc3c1c2C(N)CC3.Cl (single isomer, unassigned) [Example 2 (Isomer A)]	3.38 ng/mL

Source: patent publication EP0495432A1, “Hexa-cyclic compound” (DAIICHI PHARMACEUTICAL CO., LTD., priority 1991, dated 1992)
